Measurements published in patent US7888383B2, “Organic compounds” (Novartis AG, priority 2005, dated 2011).

Key:
human CRTh2 = target: T1, human CRTh2 (Homo sapiens, UniProt Q9Y5Y4); experiment: CRTh2 [3H]-PGD2 binding assay (filtration protocol; called SPA binding assay); conditions: competition with [3H]-PGD2 (2.5 nM), CHO.K1-CRTh2 membranes
T1 construct: expressed in transfected cells; host or cells: CHO.K1 (Chinese Hamster Ovary) cells expressing human CRTh2; membrane preparation
T1 sequence (Q9Y5Y4 1-395): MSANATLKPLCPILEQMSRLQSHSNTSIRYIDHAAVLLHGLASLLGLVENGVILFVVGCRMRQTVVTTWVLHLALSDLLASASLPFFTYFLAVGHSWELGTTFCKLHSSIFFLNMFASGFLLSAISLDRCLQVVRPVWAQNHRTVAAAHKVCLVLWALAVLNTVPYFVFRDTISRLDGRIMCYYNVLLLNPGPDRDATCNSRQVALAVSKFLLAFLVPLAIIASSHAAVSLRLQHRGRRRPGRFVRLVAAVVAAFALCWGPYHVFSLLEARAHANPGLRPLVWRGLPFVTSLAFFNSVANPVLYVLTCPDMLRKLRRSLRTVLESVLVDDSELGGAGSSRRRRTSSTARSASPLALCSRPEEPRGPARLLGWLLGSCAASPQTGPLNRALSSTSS
Method: Filtration Binding Assay Protocol
The binding of CRTh2 modulators is determined using membranes prepared from human CRTh2-expressing Chinese Hamster Ovary cells (CHO.K1-CRTh2). To produce cell membranes CHO.K1-CRTh2 cells cultured in roller bottles are harvested using cell dissociation buffer (Invitrogen). The cells are pelleted by centrifugation (167 g, 5 min). The cell pellet is incubated in hypotonic buffer (15 mM Tris-OH, 2 mM MgCl2, 0.3 mM EDTA, 1 mM EGTA, 1× Complete™ tablet) at 4° C. for 30 min. At 4° C. cells are homogenized using a Polytron® (IKA Ultra Turrax T25) for 5 bursts of 1 second. The homogenate is centrifuged (Beckman Optima™ TL Ultracentrifuge, 48000 g, 30 min at 4° C.). The supernatant is discarded and the membrane pellet resuspended in homogenisation buffer (75 mM Tris-OH, 12.5 mM MgCl2, 0.3 mM EDTA, 1 mM EGTA, 250 mM Sucrose, 1× Complete™ tablet. Membrane preparations are aliquoted and stored at […]. The protein content is estimated using Bradford Protein Assay Dye (Bio Rad).
The binding of [^3H]-PGD2 (157 Ci/mmol) to CHO.K1-CRTh2 membranes is determined in the absence (total binding) and presence (non-specific binding) of unlabelled PGD2 (1 μM). Subtraction of the cpm (counts per minute) of [^3H]-PGD2 binding in presence of excess unlabelled PGD2 from that observed in the absence of excess unlabelled PGD2 is defined as specific binding. Active CRTh2 modulators are able to compete with [^3H]-PGD2 for binding to the CRTh2 receptor and are identified in a decrease in the number of cpm bound. […]
The plates are incubated at room temperature on a shaker for 1 hour, and then harvested (Tomtec Harvester 9600) onto GF/C filter plates using wash buffer (10 mM HEPES-KOH, pH 7.4). […] Plates are then counted using a Packard Top Count instrument, Plates are then read on the Packard Topcount with the 3H Scintillation program (1 min per well).
Ki (dissocation constant for the inhibition) values for the CRTh2 modulators are reported. Ki values are determined using Sigma Plot™ software, using the Cheng-Prussoff equation. […]

[1] = target: T2, CRTh2 receptor in CHO.K1-CRTh2 cells (Homo sapiens, UniProt Q9Y5Y4); experiment: CRTH2 cAMP functional assay; format: cell-based; conditions: inhibition of PGD2-mediated attenuation of forskolin-induced cAMP accumulation in CHO.K1-CRTh2 cells
T2 construct: expressed in transfected cells; host or cells: CHO.K1-CRTh2 cells (whole cells)
T2 sequence (Q9Y5Y4 1-395): T1 sequence (Q9Y5Y4 1-395)
Method: Ki (dissocation constant for the inhibition) values for the CRTh2 modulators are reported. Ki values are determined using Sigma Plot™ software, using the Cheng-Prussoff equation. Ki=IC50/1+[S]/Kd where S is the concentration of radioligand and Kd is the dissociation constant. CRTH2 cAMP Functional Assay Protocol
This assay is conducted in CHO.K1-CRTh2 cells. cAMP is generated in the cell by stimulating cells with 5 μM forskolin, an adenylate cyclase activator. PGD2 is added to activate the CRTh2 receptor which results in the attenuation of the forskolin-induced cAMP accumulation. Potential CRTh2 antagonists are tested for their ability to inhibit the PGD2-mediated attenuation of the forskolin-induced cAMP accumulation in CHO.K1-CRTh2 cells.
For each concentration value on the dose-response curve, test compounds are prepared in assay stimulation buffer (HBSS, 5 mM HEPES, 10 μM IBMX±0.1% human serum albumin) containing DMSO (3% vol/vol) and 5 μL/well is added to an assay plate (384 well white optiplate).
CHO.K1-CRTh2 cultured in tissue culture flasks are washed with PBS and harvested with dissociation buffer. Cells are washed with PBS and resuspended in stimulation buffer to a concentration of 0.4×10^6/mL and added to the assay plate (10 μL/well).
The assay plate is incubated at room temperature on a shaker for 15 minutes.
A mix of agonist (10 nM Prostaglandin D2) and 5 μM forskolin is prepared in assay stimulation buffer and added to the assay plate (5 μL/well).
In addition, a cAMP standard is serially diluted in assay stimulation buffer and added to separate empty wells on the assay plate (20 μL/well). The cAMP standard allows for the quantification of cAMP generated in CHO.K1-CRTH2 cells.
The assay plate is incubated at room temperature on a shaker for 60 minutes. […]
The assay plate is sealed with Topseal-S™ and incubated in the dark at room temperature on a shaker for 45 minutes. The plate is then counted using a Packard Fusion™ instrument. […]

Ki (human CRTh2) [nM]	IC50 [1] [nM]	SMILES
8	73	Cc1c(CC(=O)O)c2cc(F)ccc2n1Cc1ccc(S(C)(=O)=O)cc1C(F)(F)F [Example 2, [5-fluoro-(4-methanesulfonyl-2-trifluoromethyl-benzyl)-2-methyl-1H-indol-3-yl]-acetic acid]
36	99	Cc1c(CC(=O)O)c2cc(F)ccc2n1Cc1ccc(S(=O)(=O)N2CCCC2)cc1 [Example 5, {5-Fluoro-2-methyl-1-[4-(pyrrolidine-1-sulfonyl)-benzyl]-1H-indol-3-yl}-acetic acid]
52	33	Cc1c(CC(=O)O)c2cc(F)ccc2n1Cc1ccc(S(=O)(=O)N(C)C2CCCCC2)cc1 [Example 4, {1-[4-(Cyclohexyl-methyl-sulfamoyl)-benzyl]-5-fluoro-2-methyl-1H-indol-3-yl}-acetic acid]
